Usually IC50 stands for the concentration that inhibits the measured activity by half.

Here are results for 5 molecules from patent EP2557075A1, “New triazene compounds for treating cancer” (Trin Therapeutics GmbH, priority 2011, dated 2013).

SMILES strings stand for the structures. Where two headings read alike, the source gives them in different places.

The test system of one series is MDA-MB231. Kind of series: IC50 of triazenes in MDA-MB231 cell line (Experiment 3). It counts as cell-based. The conditions noted are these: Homo sapiens, MDA-MB-231; IC50 für die MDA-MB231 gemäß Experiment 3; used as incubation concentration for PBC. The text has this:
Die nachfolgenden Experimente 3 und 4 zeigen, dass die erfindungsgemäßen neuen Triazenverbindungen eine vergleichbare Anti-Tumorwirkung (IC50) in zahlreichen Krebszelllinien wie der HepG2 (Leber), HCT8 (Darm), DU-145 (Prostata), MCF-7 und MDA-MB-231 (Brust) und MiaPaca-2 (Bauchspeicheldrüse) bei bis zu 100fach niedrigeren Konzentrationen zeigen als vergleichbare Triazene wie DTIC, TMZ oder Substanzen wie sie in der WO 2009/004060 und der DE 1 7931 1 5 beschrieben sind.
Verschiedene Triazene wie erfindungsgemäße Verbindungen nach Beispiel 1, DTIC, TMZ sowie Verbindungen nach Präparat 2 und 5 (entsprechend Verbindungen nach Präparat 2 und Beispiel 2a jeweils der WO 2009/004060) sowie Verbindungen nach Beispiel 33 der DE1793115 wurden in DMSO bzw. Wasser gelöst.
(§1) Periphäre Blutzellen (PBC) werden jeweils mit der IC50 für die MDA-MB231 gemäß Experiment 3 der entsprechenden Substanzen inkubiert. Es wird gezeigt, dass die erfindungsgemäße Verbindung nach Beispiel 1 nicht mehr DNA-Schädigungen in den PBC erzeugt als eine Negativkontrolle, […]

Series [1] concerns periphere Blutzellen (PBC). Kind of series: Cell damage (apoptosis rate, CaspACE assay, flow cytometry) in peripheral blood cells (Experiment 5). It counts as cell-based. The conditions noted are these: for % Zellen in Apoptose: Versuch 1 Lymphozyten, 24 Stunden incubation at the IC50 for MDA-MB231.
Description: Um die therapeutische Breite der neuen Substanzen abschätzen zu können, wurden periphere Blutzellen (PBC) und hämatologische Zellen (Nalm-6; CEM und U-937) für 24 Stunden mit unterschiedlichen Dosen verschiedener Triazenverbindungen bzw. Doxorubicin als positive Kontrolle für die hämatologischen Zelllinien inkubiert. Das Maß der Zellschädigung (Apoptoserate) wurde mittels CaspACE™ Assay (am Durchflusszytometer) bestimmt.
Verschiedene Triazene wie erfindungsgemäße Verbindungen nach Beispiel 1, TMZ sowie Verbindungen nach Präparat 2 und 5 (entsprechend Verbindungen nach Präparat 2 und Beispiel 2a jeweils der WO 2009/004060) wurden in DMSO bzw. Wasser entsprechend den Angaben in Abbildung 22 gelöst.
as §1

Another series concerns HL-60. Kind of series: Growth inhibition (IC50) in leukaemic HL-60 cells (Experiment 7). It counts as cell-based. The following applies: Homo sapiens, HL-60, 24 Stunden. The text has this:
(§2) Hämatologische Zellen (CEM, HL-60) wurden für 24 Stunden mit unterschiedlichen Dosen verschiedener Triazenverbindungen inkubiert, um die IC50 zu bestimmen.

The next series relates to CEM. The experiment in a line: Growth inhibition (IC50) in leukaemic CEM cells (Experiment 7). It counts as cell-based. The following applies: Homo sapiens, CCRF-CEM, 24 Stunden.
Description: as §2

The nature of series [2]: Formulation trials for intravenous application (Experiment 8). It counts as physicochemical. Here is the method: Um die Testergebnisse aus Experiment 7 in einem in-vivo Xenograft Modell zu bestätigen, wurden Formulierungsversuche mit Verbindungen nach Beispiel 1 sowie der Verbindung nach Beispiel 2 aus DE 1 793 1 15, als den wirksamsten Verbindungen aus Experiment 7, unternommen.
15mg der Verbindung nach Beispiel 1 werden in 30µL DMSO ([…]) gelöst. Diese Stocklösung wird in 270µL 1 M Na2CO3 Lösung gegeben und nur leicht geschwenkt, nicht aber mittels Ultraschallbad behandelt.
Gleichermaßen sollte eine Formulierung für Verbindungen nach Beispiel 2 aus DE 1 7 93 1 15 hergestellt werden. Hier wurden 15µL der Verbindung nach Beispiel 2 vorgelegt. Bei einer Dichte von 1,08g/ml entsprach dies 16,2mg der Verbindung nach Beispiel 2. Dazu wurden 32,4µL DMSO gegeben. […] Sodann wurden 90µL einer frisch hergestellten 1 molaren Na2CO3 Lösung vorgelegt und 10µL der Lösung der Verbindung nach Beispiel 2 hinzugegeben. […] Auch mittels Ultraschallbad konnte keine Auflösung des erzeugten Niederschlags herbeiführen.

Another series deals with MCF-7-Zellen. Kind of series: Intracellular metabolisation of triazenes in MCF-7 cell culture (Experiment 1). It counts as in vitro ADME. The following applies: MCF-7, 100nmol/ml, 100% FCS, binnen 20 Stunden. Here is the method: Es wird gezeigt, dass Verbindungen nach Beispiel 1 schneller und in größerer Menge intrazellulär metabolisiert werden als die als Vergleichssubstanzen eingesetzten Verbindungen nach Präparat 2 und 5 (entsprechend Verbindungen nach Präparat 2 und Beispiel 2a jeweils der WO 2009/004060).
Die getesteten Verbindungen wurden wie folgt gelöst: • Erfindungsgemäße Verbindung: • Beispiel 1 : in 20 mg/ml DMSO
Vergleichssubstanzen: • Präparat 2: in 50mg/ml DMSO, • Präparat 5: in 50mg/ml Wasser.
Alle drei Substanzen wurden äquimolar in einer Dosis von 100nmol/ml auf 1 x 10^7 HepG2 bzw. MCF-7-Zellen gegeben. Als Zellkulturmedium wurde 100% fötales Kälberserum (FCS) verwendet. Für den Versuch wurde der Gehalt aus Ausgangsprodukt und Metaboliten im Zellüberstand nach 1, 3 und 6 (HepG2) bzw. 1,3 und 20 Stunden (MCF-7) Inkubationszeit ermittelt. Alle drei Substanzen zeigten in Kontrollversuchen mit 100% FCS nach 40 Stunden metabolische Stabilität.

The mark [3] stands for this setting: mean of Exp. 1-5, read-out: IC50 Mittelwert.
The mark [4] stands for this setting: mean of Exp. 1-4, read-out: IC50 Mittelwert.

For the molecule `CN(C)N=Nc1ccc(C(=O)c2ccccc2)cc1` [Beispiel 2 der DE 1793115], the concentration for half-maximal inhibition (IC50) came to 25.5 µM in the series with MDA-MB231; 10 µM in the series on HL-60 (setting [3]); 8.69 µM in the series with HL-60 (read-out: IC50 Exp. 1); 11.8 µM in the series on HL-60 (read-out: IC50 Exp. 2); 11.1 µM in the series with HL-60 (read-out: IC50 Exp. 3); 9.47 µM in the series on HL-60 (read-out: IC50 Exp. 4). Moreover, the IC50 in the series on HL-60 (read-out: IC50 Exp. 5) was 9.08 µM; in the series on CEM (setting [4]), 10 µM; in the series with CEM (read-out: IC50 Exp. 1) it was 10.3 µM; in the series on CEM (read-out: IC50 Exp. 2), 10.3 µM; in the series with CEM (read-out: IC50 Exp. 3), 8.69 µM; in the series with CEM (read-out: IC50 Exp. 4), 10.7 µM. In addition, the “% Zellen in Apoptose” value in series [1] is 6,570%. Moreover, the “Löslichkeit in DMSO” value in series [2] (16,2mg in 32,4µL DMSO) is listed as “löste sich vollständig”. Further, the “Löslichkeit in der Formulierung” value in series [2] (DMSO stock solution given into 1 M Na2CO3 Lösung) is reported as “Sofort fiel weißer Niederschlag aus”. Also, the “stabile und verträgliche Formulierung” value in series [2] (Lösungsmittel wie Cremophor, PEG400, Tween80, Poloxamer) is “nicht erreicht werden konnte”.

`CN(C)/N=N/c1[nH]cnc1C(N)=O` [Dacarbazine] yielded a half-inhibitory concentration (IC50) in the series with MDA-MB231 of 625 µM. Also, the “% Zellen in Apoptose” value in series [1] is listed as 8,260%.

On to `COc1cccc2c1C(=O)c1c(O)c3c(c(O)c1C2=O)C[C@@](O)(C(=O)CO)C[C@@H]3O[C@H]1C[C@H](N)[C@H](O)[C@H](C)O1` [Doxorubicin], for which the IC50 turned out to be 0.0012 µM in the series with HL-60 (read-out: IC50 Exp. 1); 0.00116 µM in the series on HL-60 (read-out: IC50 Exp. 2); 0.000662 µM with HL-60 (read-out: IC50 Exp. 3); 0.00131 µM with HL-60 (read-out: IC50 Exp. 4); 0.00134 µM in the series on HL-60 (read-out: IC50 Exp. 5); 8510 µM in the series on CEM (setting [4]). In addition, the IC50 in the series on CEM (read-out: IC50 Exp. 1) was found to be 6810 µM; in the series on CEM (read-out: IC50 Exp. 2), 5890 µM; in the series with CEM (read-out: IC50 Exp. 3), 9940 µM; in the series with CEM (read-out: IC50 Exp. 4) it was 114 µM.

For the molecule `CN(C)N=Nc1ccc(C(=O)c2ccc(OCCC(=O)NCC(=O)O)cc2)cc1` [Präparat 5], the metabolisiert with MCF-7-Zellen is recorded as approximately 30%. Besides, the concentration for half-maximal inhibition (IC50) with HL-60 (setting [3]) was 1190 µM; in the series with HL-60 (read-out: IC50 Exp. 1), 829 µM; with HL-60 (read-out: IC50 Exp. 2) it was 879 µM; with HL-60 (read-out: IC50 Exp. 3) it was 1530 µM; with HL-60 (read-out: IC50 Exp. 4), 1510 µM; in the series with CEM (setting [4]) it was 735 µM. Moreover, the IC50 in the series with CEM (read-out: IC50 Exp. 1) was 754 µM; in the series with CEM (read-out: IC50 Exp. 2) it was 879 µM; in the series on CEM (read-out: IC50 Exp. 3), 678 µM; in the series on CEM (read-out: IC50 Exp. 4) it was 628 µM.

`Cn1nnc2c(C(N)=O)ncn2c1=O` [Temozolomide, 4-methyl-5-oxo-2,3,4,6,8-pentazabicyclo [4.3.0] nona-2,7,9-triene-9-carboxamide] had an IC50 in the series on MDA-MB231 of 515 µM. Besides, in series [1] (PBC, 24 stündige Inkubation), the “Zellschädigung (Apoptoserate) vs. Negativkontrolle” value is recorded as “Anstieg der Apoptoserate”. In series [1], the “% Zellen in Apoptose” value is 15,320%.
